In publication PMC5131319, “Occurrence, temporal trends, and half-lives of perfluoroalkyl acids (PFAAs) in occupational workers in China” (Scientific Reports, 2016):

Assays:
[1] = fishery employees from Tangxun Lake; cited from earlier work
[2] = PFAA concentration in serum of occupational workers (HPLC-ESI/MS/MS); assay type: in vivo, human; parameters: Serum PFAA level: unit: ng/mL
Method: (§1) The selected fluorochemical plant (Henxin Chemical Plant) in this study is one of the largest producers of PFOS-related chemicals in China and is located in Yingcheng, Hubei province. Perfluoroalkyl sulfonic acids (PFSAs) and perfluorotertiary amines are synthesized through an electro-chemical fluorination (ECF) process. We collected paired serum and urine samples from the occupational workers in the plant for five consecutive years, and the sampling activities were carried out in Nov. 2008, Nov. 2009, Nov. 2010, Dec. 2011, and Dec 2012, respectively. The Medical Research Ethics Committee, School of Medicine, Jianghan University, approved the ethics of this study, and all methods were performed in accordance with the relevant guidelines and regulations, moreover, all volunteers gave written informed consent. Demographic information of the donors, including gender, age, length of service, and work assignment, was collected with a questionnaire (Table S1). The sampled population included a total of 302 occupational workers, of which there were 89 female and 213 male participants. In total, 302 serum and 274 urine samples were collected.
(§2) The participants were told not to eat breakfast before the sampling, and morning urine samples and blood samples were collected. Serum was separated from the blood by centrifugation at 1100 × g at 4 °C for 10 min and then placed on ice. Serum samples were then transferred to our laboratory on the same day and stored in polypropylene containers at −20 °C until analysis.
(§3) All pre-treatment methods and instrument analysis of PFAAs in serum and urine samples are based on previous studies with minor modifications (see Supplementary Information)[3][31]. Based on the PFAA profiles in environmental matrices around the same plant in our previous study, only 3 main PFAAs, PFHxS, PFOA, and PFOS, were analyzed in the obtained serum and urine samples. Instrumental analysis of the PFAAs was performed by a HPLC-ESI/MS/MS system (HPLC: Waters 2695, MS: Waters Quattro Premier XE). The limits of detection (LODs) of PFHxS, PFOA, and PFOS were 0.020, 0.063, and 0.018 ng mL^−1 for serum samples and 0.008, 0.025, and 0.007 ng mL^−1 for urine samples, respectively. A procedural blank was performed for every batch of seven samples, and all of the blank levels were below the LODs. […] Details of quality assurance and quality control of the chemical analysis can be found in the Supplementary Information.

[3] = Half-life estimated by annual decline rates of serum PFAAs (first-order model); assay type: in vivo, human
Text: Olsen et al.[21] found linear relationship between the logarithm of serum PFAAs concentration and time, and a first order model was adopted to estimate the half-lives of PFAAs. The elimination of PFAAs in humans was also described with the following equation: […]
If we set C(t) as 1/2C0, then the half-life
where k is the elimination rate constant. We calculated k using two approaches in the present study. In the first approach, k is defined as Cltotal/Vd, where Vd stands for the volume of distribution of PFAAs in the human body. Cltotal represents the total daily PFAAs clearance in the human body; for men and women older than 50, it refers to renal clearance, while for young women, it is defined as the sum of menstrual clearance and renal clearance. To keep consistency with other studies, Vd of PFOS and PFHxS were set at 230 mL kg^−1, and Vd of PFOA was set at 170 mL kg^−1 in this study. In the second approach, k is defined as the average annual decline rates of PFAAs in workers who participated in this study.
Serum PFAAs of workers were sequentially measured for 5 years, and they fluctuated during our sampling period, although different serum PFAAs decreased in certain years. […] For PFOA, 31 out of 42 workers decreased in the period of 2011–2012, and the serum PFOA concentration dropped by 41%. […] We assumed that there were no new inputs of PFAAs in these workers, and thus k in Eq (2) was set as the average annual serum PFAA decline rate. The half-lives of PFHxS, PFOA, and PFOS estimated by Eq (2) were 3.6, 1.7, and 1.9 years.

[4] = PFAA concentration in morning urine of occupational workers (HPLC-ESI/MS/MS); assay type: in vivo, human
Method: as §1, §2, §3
Urine samples were pretreated by solid phase extraction. Briefly, 1 mL of urine spiked with 5 ng of internal standard was added to a 15 - mL PP tube and diluted with 13 mL water. The solid phase extraction procedure was then performed following the previously described serum extraction procedure.

[5] = cited from earlier work
[6] = Fabric finishing agent department, N 8

**Q.** What does the source list for O=S(=O)(O)C(F)(F)C(F)(F)C(F)(F)C(F)(F)C(F)(F)C(F)(F)F [PFHxS, perfluorohexane sulfonate]?
**A.** Clrenal, median [1]: 0.012 mL/day/kg; Serum concentration, mean ([2]; All workers, N 302): 1855 ng/mL; Serum concentration, median ([2]; All workers, N 302): 764 ng/mL; Serum PFAA level ([2]; Electrolytic Department, length of service 1-3 years): 960; Serum PFAA level ([2]; Electrolytic Department, length of service < 1 year): 197; Serum PFAA level ([2]; Electrolytic Department, length of service >3 years): 1116; Serum concentration, mean ([2]; Electrolytic department, N 74): 1469 ng/mL; Serum concentration, median ([2]; Electrolytic department, N 74): 1011 ng/mL; Serum concentration, range ([2]; Electrolytic department, N 74): 46.6 to 6759 ng/mL; Serum concentration, mean [2, 6]: 1956 ng/mL; Serum concentration, median [2, 6]: 1768 ng/mL; Serum concentration, range [2, 6]: 550 to 4690 ng/mL; Serum PFAA level ([2]; Management Office, length of service 1-3 years): 65.1; Serum PFAA level ([2]; Management Office, length of service < 1 year): 8.5; Serum PFAA level ([2]; Management Office, length of service >3 years): 186; Serum concentration, mean ([2]; Management office, N 92): 331 ng/mL; Serum concentration, median ([2]; Management office, N 92): 169 ng/mL; Serum PFAA level ([2]; Research Building, length of service 1-3 years): 946; Serum PFAA level ([2]; Research Building, length of service < 1 year): 26; Serum PFAA level ([2]; Research Building, length of service >3 years): 607; Serum concentration, mean ([2]; Research building, N 27): 842 ng/mL; Serum concentration, median ([2]; Research building, N 27): 506 ng/mL; Serum concentration, range ([2]; Research building, N 27): 3.0 to 3360 ng/mL; Serum PFAA level ([2]; Sulfonation Department, length of service 1-3 years): 1477; Serum PFAA level ([2]; Sulfonation Department, length of service < 1 year): 1129; Serum PFAA level ([2]; Sulfonation Department, length of service >3 years): 3087; Serum concentration, mean ([2]; Sulfonation department, N 101): 3778 ng/mL; Serum concentration, median ([2]; Sulfonation department, N 101): 2250 ng/mL; Serum concentration, geometric mean ([2]; all occupational workers): 628 ng/mL; Average serum concentration (Average ± SD) ([2]; female workers, n 89): 1,044 ± 1718 ng mL^−1; concentration at 2009 calendar year ([2]; human, serum, 2009, 37 workers, read-out: Serum concentration in workers (decline estimate)): 455 ng/mL; concentration at 2010 calendar year ([2]; human, serum, 2010, 37 workers, read-out: Serum concentration in workers (decline estimate)): 366 ng/mL; concentration at 2008 calendar year ([2]; human, serum, other: occupational exposure, 46 workers sampled at least three times, 2008, read-out: Serum concentration, GM): 328 ng/mL; concentration at 2012 calendar year ([2]; human, serum, other: occupational exposure, 46 workers sampled at least three times, 2012, read-out: Serum concentration, GM): 1670 ng/mL; Average serum concentration (Average ± SD) ([2]; male workers, n 213): 2,191 ± 3,050 ng mL^−1; Serum concentration, GM ([2]; workers with service length 1–3 years): 521 ng/mL; Serum concentration, GM ([2]; workers with service length less than 1 year): 212 ng/mL; Serum concentration, GM ([2]; workers with service length more than 3 years): 830 ng/mL; Annual drop of serum concentration ([3]; 2009 to 2010, 37 workers): 19%; half-life ([3]; human, k = average annual serum decline rate, no new inputs assumed, two time points): 1310 days; Urine concentration, mean ([4]; All workers, N 274): 3.9 ng/mL; Urine concentration, median ([4]; All workers, N 274): 1.7 ng/mL; Urine concentration, mean ([4]; Electrolytic department, N 67): 2.3 ng/mL; Urine concentration, median ([4]; Electrolytic department, N 67): 1.3 ng/mL; Urine concentration, mean [4, 6]: 3.5 ng/mL; Urine concentration, median [4, 6]: 2.4 ng/mL; Urine concentration, range [4, 6]: 0.79 to 7.1 ng/mL; Urine concentration, mean ([4]; Management office, N 76): 0.93 ng/mL; Urine concentration, median ([4]; Management office, N 76): 0.37 ng/mL; Urine concentration, mean ([4]; Research building, N 25): 1.9 ng/mL; Urine concentration, median ([4]; Research building, N 25): 0.97 ng/mL; Urine concentration, mean ([4]; Sulfonation department, N 98): 7.1 ng/mL; Urine concentration, median ([4]; Sulfonation department, N 98): 3.7 ng/mL; Shortest half-life in humans reported in previous studies [5]: 7.3 years; Half-life based on serum concentrations ([5]; humans): more than 5 years; Half-life (GM) ([5]; retired fluorochemical production workers): 7.3 years; Half-life by daily clearance (GM) ([5]; young females): 7.8 years
